According to patent US10851064B2, “ACSS2 inhibitors and methods of use thereof” (METABOMED LTD., priority 2017, dated 2020):

Molecular target: ACSS2 (Homo sapiens, UniProt Q9NR19)
Experiment: biochemical
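Further: Cell-free human ACSS2 enzyme reaction with acetate, CoA and ATP, 90 min at 37 C, coupled to pyrophosphatase, phosphate release detected by Biomol Green absorbance at 620 nm.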

Chain of ACSS2 (Q9NR19 whole entry): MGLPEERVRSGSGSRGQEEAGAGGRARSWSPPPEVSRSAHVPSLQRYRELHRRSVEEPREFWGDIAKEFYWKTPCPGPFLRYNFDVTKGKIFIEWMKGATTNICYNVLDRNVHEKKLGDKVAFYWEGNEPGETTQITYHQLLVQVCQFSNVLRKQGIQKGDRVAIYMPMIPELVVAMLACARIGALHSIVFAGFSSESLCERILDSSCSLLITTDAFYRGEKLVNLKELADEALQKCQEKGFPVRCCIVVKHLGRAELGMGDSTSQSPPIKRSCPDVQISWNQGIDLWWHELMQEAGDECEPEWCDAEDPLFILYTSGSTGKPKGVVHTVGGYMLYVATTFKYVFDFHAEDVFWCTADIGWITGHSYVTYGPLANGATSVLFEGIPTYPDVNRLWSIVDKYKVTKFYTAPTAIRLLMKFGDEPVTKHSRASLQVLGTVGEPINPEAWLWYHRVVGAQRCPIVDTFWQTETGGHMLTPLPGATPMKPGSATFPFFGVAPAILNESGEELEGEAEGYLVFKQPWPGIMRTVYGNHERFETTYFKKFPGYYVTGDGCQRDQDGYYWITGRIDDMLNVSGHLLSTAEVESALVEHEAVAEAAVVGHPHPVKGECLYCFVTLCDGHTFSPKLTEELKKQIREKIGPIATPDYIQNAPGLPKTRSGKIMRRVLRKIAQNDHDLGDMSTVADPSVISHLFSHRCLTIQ
Protocol: ACSS2 Cell-Free Activity Assay (Cell-Free IC50)
The assay is based on a coupling reaction with Pyrophosphatase: ACSS2 is converting ATP+CoA+Acetate=>AMP+pyrophosphate+Acetyl-CoA (Ac-CoA). Pyrophosphatase converts pyrophosphate, a product of the ACSS2 reaction, to phosphate which can be detected by measuring the absorbance at 620 nm after incubation with the Biomol green reagent (Enzo life Science, BML-AK111).
Cell-free IC50 Determination:
At the end of the reaction, Biomol Green was added for 30 minutes at RT and the activity was measured by reading the absorbance at 620 nm.

Compound | IC50 [nM]
CCc1cccc(NC(=O)C2C(=O)N(c3ccccc3)N=C2Cc2ccccc2)c1 (stereo not shown) [compound 129, 3-benzyl-N-(3-ethylphenyl)-5-oxo-1-phenyl-4,5-dihydro-1H-pyrazole-4-carboxamide] | 1000 to 100000
CC1=NN(c2ccccc2)C(=O)C1C(=O)Nc1ccc(S(=O)(=O)N(C)C)cc1 (stereo not shown) [compound 105, N-(4-(N,N-dimethylsulfamoyl)phenyl)-3-methyl-5-oxo-1-phenyl-4,5-dihydro-1H-pyrazole-4-carboxamide] | 1000 to 100000
CCc1cccc(NC(=O)C2C(=O)N(c3ccccc3)N=C2c2ccncc2)c1 (stereo not shown) [compound 137, N-(3-ethylphenyl)-5-oxo-1-phenyl-3-(pyridin-4-yl)-4,5-dihydro-1H-pyrazole-4-carboxamide] | 1000 to 100000
CCc1cccc(NC(=O)c2c(C)nn(-c3ccc(NC)cc3)c2OC(=O)N(C)C)c1 [compound 224, 4-((3-ethylphenyl)carbamoyl)-3-methyl-1-(4-(methylamino)phenyl)-1H-pyrazol-5-yl dimethylcarbamate] | 1000 to 100000
CC1=NN(c2ccc(C(F)(F)F)cc2)C(=O)C1C(=O)Nc1cccc(-c2ncco2)c1 (stereo not shown) [compound 270] | 100 to 1000
CC1=NN(c2ccc(OC(F)F)cc2)C(=O)C1C(=O)Nc1cccc2[nH]ccc12 (stereo not shown) [compound 350] | 100 to 1000
CC1=NN(c2ccccc2)C(=O)C1C(=O)Nc1cccc(C(=O)C(F)(F)F)c1 (stereo not shown) [compound 152, 3-methyl-5-oxo-1-phenyl-N-(3-(2,2,2-trifluoroacetyl)phenyl)-4,5-dihydro-1H-pyrazole-4-carboxamide] | 1000 to 100000
CC1=NN(c2ccccc2)C(=O)C1C(=O)N[C@@H](C)C(=O)O (stereo partly drawn) [compound 218, (2S)-2-(3-methyl-5-oxo-1-phenyl-4,5-dihydro-1H-pyrazole-4-carboxamido)propanoic acid] | 1000 to 100000
CC(=O)c1cccc(NC(=O)C2C(=O)N(c3cccc(C(=O)O)c3)N=C2C)c1 (stereo not shown) [compound 123, 3-(4-((3-acetylphenyl)carbamoyl)-3-methyl-5-oxo-4,5-dihydro-1H-pyrazol-1-yl)benzoic acid] | 100 to 1000
CCc1cscc1NC(=O)C1C(=O)N(c2ccccc2)N=C1C (stereo not shown) [compound 290] | 100 to 1000
CC1=NN(c2ccccc2)C(=O)C1C(=O)Nc1cccc(O)c1 (stereo not shown) [compound 222, N-(3-hydroxyphenyl)-3-methyl-5-oxo-1-phenyl-4,5-dihydro-1H-pyrazole-4-carboxamide] | 1000 to 100000
CC1=NN(c2ccc(OC(F)F)cc2)C(=O)C1NC(=O)c1cccc(C(C)(F)F)c1 (stereo not shown) [compound 341] | 100 to 1000
CC1=NN(c2ccc(OC(F)F)cc2)C(=O)C1C(=O)N(C)c1cc(Cl)c(F)c(Cl)c1 (stereo not shown) [compound 391] | 100 to 1000
CNC(=O)C1C(=O)N(c2ccccc2)N=C1C (stereo not shown) [compound 199, N,3-dimethyl-5-oxo-1-phenyl-4,5-dihydro-1H-pyrazole-4-carboxamide] | > 100000
CC1=NN(c2ccc3ccccc3c2)C(=O)C1C(=O)Nc1ccccc1 (stereo not shown) [compound 198, 5-hydroxy-3-methyl-1-(naphthalen-2-yl)-N-phenyl-1H-pyrazole-4-carboxamide] | 1000 to 100000
CC1=NN(c2ccccc2)C(=O)C1C(=O)Nc1ccccc1 (stereo not shown) [compound 182, 3-methyl-5-oxo-N,1-diphenyl-4,5-dihydro-1H-pyrazole-4-carboxamide] | 1000 to 100000
CC1=NN(c2ccccc2)C(=O)C1C(=O)Nc1ccc(O)cc1 (stereo not shown) [compound 205, N-(4-hydroxyphenyl)-3-methyl-5-oxo-1-phenyl-4,5-dihydro-1H-pyrazole-4-carboxamide] | 1000 to 100000

Compound | IC50 [nM]
CC1=NN(c2ccccc2)C(=O)C1C(=O)Nc1cscc1C (stereo not shown) [compound 283] | 100 to 1000
CC1=NN(c2ccccn2)C(=O)C1C(=O)Nc1ccccc1 (stereo not shown) [compound 192, 5-hydroxy-3-methyl-N-phenyl-1-(pyridin-2-yl)-1H-pyrazole-4-carboxamide] | > 100000
CC1=NN(c2ccccc2)C(=O)C1C(=O)Nc1cccc(C)c1 (stereo not shown) [compound 212, 3-methyl-5-oxo-1-phenyl-N-(m-tolyl)-4,5-dihydro-1H-pyrazole-4-carboxamide] | 1000 to 100000
CC1=NN(c2ccccc2)C(=O)C1C(=O)Nc1cccc(C2CCCC2)c1 (stereo not shown) [compound 146, N-(3-cyclopentylphenyl)-3-methyl-5-oxo-1-phenyl-4,5-dihydro-1H-pyrazole-4-carboxamide] | 100 to 1000
CCc1cccc(NC(=O)C2C(=O)N(c3ccc(N)cc3)N=C2C)c1 (stereo not shown) [compound 154, 1-(4-aminophenyl)-N-(3-ethylphenyl)-3-methyl-5-oxo-4,5-dihydro-1H-pyrazole-4-carboxamide] | 100 to 1000
CC1=NN(c2cccc(C#CCN)c2)C(=O)C1C(=O)Nc1cccc(C(C)(F)F)c1 (stereo not shown) [compound 356] | 6 to 100
CC1=NN(c2ccc(C(F)(F)F)cc2)C(=O)C1C(=O)Nc1cccc(-c2ccco2)c1 (stereo not shown) [compound 162, N-(3-(furan-2-yl)phenyl)-3-methyl-5-oxo-1-(4-(trifluoromethyl)phenyl)-4,5-dihydro-1H-pyrazole-4-carboxamide] | 6 to 100
CCc1cccc(NC(=O)C2C=NN(c3ccccc3)C2=O)c1 (stereo not shown) [compound 133, N-(3-ethylphenyl)-5-oxo-1-phenyl-4,5-dihydro-1H-pyrazole-4-carboxamide] | 100 to 1000
CC1=NN(c2cccc(S(=O)(=O)N(C)C)c2)C(=O)C1C(=O)Nc1cccc(-c2cnccn2)c1 (stereo not shown) [compound 272] | 6 to 100
CC1=NN(c2ccc(S(=O)(=O)N(C)C)cc2)C(=O)C1C(=O)Nc1cccc(-c2ncco2)c1 (stereo not shown) [compound 254] | 100 to 1000
CC1=NN(c2ccc(S(=O)(=O)N(C)C)cc2)C(=O)C1C(=O)Nc1cccc(-c2ncc[nH]2)c1 (stereo not shown) [compound 173, N-(3-(1H-imidazol-2-yl)phenyl)-1-(4-(N,N-dimethylsulfamoyl)phenyl)-3-methyl-5-oxo-4,5-dihydro-1H-pyrazole-4-carboxamide] | 100 to 1000
CCc1cccc(NC(=O)C2C(=O)N(c3ccc4cccnc4c3)N=C2C)c1 (stereo not shown) [compound 267] | 6 to 100
CCNC(c1cccc(NC(=O)C2C(=O)N(c3ccccc3)N=C2C)c1)C(F)(F)F (stereo not shown) [compound 176] | 1000 to 100000
CC1=NN(c2ccccc2)C(=O)C1C(=O)Nc1cccc(CO)c1 (stereo not shown) [compound 111, N-(3-(hydroxymethyl)phenyl)-3-methyl-5-oxo-1-phenyl-4,5-dihydro-1H-pyrazole-4-carboxamide] | 1000 to 100000
CC1=NN(c2ccccc2)C(=O)C1C(=O)Nc1ccc2[nH]cnc2c1 (stereo not shown) [compound 278] | 1000 to 100000
CC1=NN(c2ccccc2)C(=O)C1C(=O)Nc1ccccn1 (stereo not shown) [compound 214, 3-methyl-5-oxo-1-phenyl-N-(pyridin-2-yl)-4,5-dihydro-1H-pyrazole-4-carboxamide] | > 100000
COc1ccc(N2N=C(C)C(C(=O)Nc3cccc(C(C)(F)F)c3)C2=O)c(C)c1 (stereo not shown) [compound 302] | 100 to 1000

The next lines start with the values.

IC50 [nM] | Compound
6 to 100 | CC1=NN(c2ccccc2)C(=O)C1C(=O)Nc1cccc(-c2cccs2)c1 (stereo not shown) [compound 101, 3-methyl-5-oxo-1-phenyl-N-(3-(thiophen-2-yl)phenyl)-4,5-dihydro-1H-pyrazole-4-carboxamide]
0.01 to 6 | CC1=NN(c2cc(-c3ccccc3)cc(-c3cccnc3)c2)C(=O)C1C(=O)Nc1cccc(C(C)(F)F)c1 (stereo not shown) [compound 390]
6 to 100 | CC1=NN(c2ccc(OC(F)(F)F)cc2)C(=O)C1C(=O)Nc1cc(C(C)(F)F)cs1 (stereo not shown) [compound 296]
6 to 100 | CC1=NN(c2ccncc2)C(=O)C1C(=O)Nc1cccc(-c2cnccn2)c1 (stereo not shown) [compound 232]
6 to 100 | CC1=NN(c2ccccc2)C(=O)C1C(=O)Nc1cccc(CC(F)(F)F)c1 (stereo not shown) [compound 161, 3-methyl-5-oxo-1-phenyl-N-(3-(2,2,2-trifluoroethyl)phenyl)-4,5-dihydro-1H-pyrazole-4-carboxamide]
6 to 100 | CC1=NN(c2ccc(C3COC3)cc2)C(=O)C1C(=O)Nc1cccc(C(C)(F)F)c1 (stereo not shown) [compound 348]
0.01 to 6 | COc1ccc(N2N=C(C)C(C(=O)Nc3cccc(C(C)(F)F)c3)C2=O)cc1-c1ccncc1 (stereo not shown) [compound 431]
0.01 to 6 | CC1=NN(c2ccc(Br)cc2)C(=O)C1C(=O)Nc1cccc(C(C)(F)F)c1 (stereo not shown) [compound 422]
0.01 to 6 | CCCc1cc(-c2cccnc2)cc(N2N=C(C)C(C(=O)Nc3cccc(C(C)(F)F)c3)C2=O)c1 (stereo not shown) [compound 399]
0.01 to 6 | CC1=NN(c2ccc(OC(F)F)c(-c3ccccc3)c2)C(=O)C1C(=O)Nc1cccc(C(C)(F)F)c1 (stereo not shown) [compound 453]
6 to 100 | CCc1cccc(NC(=O)C2C(=O)N(c3ccc(OCC4CC4)cc3)N=C2C)c1 (stereo not shown) [compound 143, 1-(4-(cyclopropylmethoxy)phenyl)-N-(3-ethylphenyl)-3-methyl-5-oxo-4,5-dihydro-1H-pyrazole-4-carboxamide]
6 to 100 | CC1=NN(c2ccc(OC(F)F)cc2)C(=O)C1C(=O)Nc1cccc(C(C)(O)c2ccccc2)c1 (stereo not shown) [compound 337]
0.01 to 6 | CC1=NN(c2ccc(OC3CCC3)cc2)C(=O)C1C(=O)Nc1cccc(C(C)(F)F)c1 (stereo not shown) [compound 440]
0.01 to 6 | CC1=NN(c2cccc(Br)c2)C(=O)C1C(=O)Nc1cccc(C(C)(F)F)c1 (stereo not shown) [compound 404]
6 to 100 | CC1=NN(c2ccc(OC(F)(F)F)cc2)C(=O)C1C(=O)Nc1csc(C(C)(F)F)c1 (stereo not shown) [compound 295]
0.01 to 6 | CC1=NN(c2cccc(C#CCNC(=O)COCCOCCOCCOCC(=O)Nc3ccc4c(c3)C(=O)N(C3CCC(=O)NC3=O)C4=O)c2)C(=O)C1C(=O)Nc1cccc(C(C)(F)F)c1 (stereo not shown) [compound 379]
6 to 100 | CC1=NN(c2cc(-c3ccccc3)cc(-c3ccccc3)c2)C(=O)C1C(=O)Nc1cccc(C(C)(F)F)c1 (stereo not shown) [compound 401]
0.01 to 6 | CC1=NN(c2cc(-c3ccccc3)cc(-c3ccsc3)c2)C(=O)C1C(=O)Nc1cccc(C(C)(F)F)c1 (stereo not shown) [compound 372]
6 to 100 | CC1=NN(c2ccc3[nH]cnc3c2)C(=O)C1C(=O)Nc1cccc(C(C)(F)F)c1 (stereo not shown) [compound 405]
0.01 to 6 | CC1=NN(c2cccc(C#CCNC(=O)COCCOCC(=O)Nc3cccc4c3C(=O)N(C3CCC(=O)NC3=O)C4=O)c2)C(=O)C1C(=O)Nc1cccc(C(C)(F)F)c1 (stereo not shown) [compound 381]
0.01 to 6 | CC1=NN(c2ccc(OC3CCCC3)cc2)C(=O)C1C(=O)Nc1cccc(C(C)(F)F)c1 (stereo not shown) [compound 446]
